{"source": "patent US11932624B2", "about": "“MDM2 degraders and uses thereof” (Kymera Therapeutics, Inc., priority 2020, dated 2024)"}
{"tested_on": "RS411 cells", "test": "Cell Viability CTG Assay (CellTiter Glo) in RS411 cells", "assay_type": "cell-based", "details": "Homo sapiens, RS4-11, 24 h, duration 1 day", "protocol": "(§1) Example 23. Cell Viability CTG Assay\n(§2) Day 0: Compounds or DMSO 60 nL were stamped to the cell plate as the platemap. RS411 cells were centrifuged at 800 rpm for 5 min, suspended with culture medium, and counted with Countess (Invitrogen). The cell density was adjusted to the recommend information. 30 μL of cell solution (1000 cells/well) was added to the assay plate as the platemap and 30 uL of media was added to column 2 and column 23 as the platemap. The plate was spun down briefly. The final concentration of the compounds started at 10 μM (3 fold dilution and 11 doses) and final DMSO concentration was 0.2%. The plate was spun down briefly and incubated at 37° C., 5% CO2 for 1-4 days.\n(§3) 30 μL CellTiter Glo reagent was added to each well and the plate was centrifuged at 1000 rpm for 30 sec. The plate was shaken for 1 min and centrifuged at 1000 rpm for 30 sec. The plate was incubated at RT for 10 min to stabilize the luminescent signal and the luminescence was read by EnVision.\n(§4) The letter codes for IC50 indicate the concentration of compound required to affect 50% of cells: A (<0.05 μM), B (0.05-0.1 μM), C (0.1-0.5 μM), D (0.5-1.0 μM), and E (>1.0 μM).", "units": {"IC50": "nM"}}
{"smiles": "CCN1[C@@H](C(=O)NC23CCC(C(=O)NCCCCCc4ccc5c(c4)n(C)c(=O)n5C4CCC(=O)NC4=O)(CC2)CC3)[C@H](c2cccc(Cl)c2F)[C@]2(C(=O)Nc3cc(Cl)ccc32)C12CCCCC2", "note": "(some centres unmarked) [I-42]", "IC50": "< 50"}
{"smiles": "Cn1c(=O)n(C2CCC(=O)NC2=O)c2cccc(C#CCOC3CCN(C(=O)c4ccc(NC(=O)[C@@H]5NC6(CCCCC6)[C@@]6(C(=O)Nc7cc(Cl)ccc76)[C@H]5c5cccc(Cl)c5F)cc4)CC3)c21", "note": "(stereo partly drawn) [I-43, (3′R,4'S,5′R)-6″-chloro-4′-(3-chloro-2-fluorophenyl)-N-(4-(4-((3-(1-(2,6-dioxopiperidin-3-yl)-3-methyl-2-oxo-2,3-dihydro-1H-benzo[d]imidazol-4-yl)prop-2-yn-1-yl)oxy)piperidine-1-carbonyl)phenyl)-2″-oxodispiro[cyclohexane-1,2′-pyrrolidine-3′,3″-indoline]-5′-carboxamide]", "IC50": "< 50"}
{"smiles": "Cn1c(=O)n(C2CCC(=O)NC2=O)c2cccc(OC3CC4(CCN(C(=O)c5ccc(NC(=O)[C@@H]6NC7(CCCCC7)[C@@]7(C(=O)Nc8cc(Cl)ccc87)[C@H]6c6cccc(Cl)c6F)cc5)CC4)C3)c21", "note": "(some centres unmarked) [I-44]", "IC50": "< 50"}
{"smiles": "CN(C(=O)c1ccc(NC(=O)[C@@H]2NC3(CCCCC3)[C@@]3(C(=O)Nc4cc(Cl)ccc43)[C@H]2c2cccc(Cl)c2F)cc1)C1CCC2(CC1)CC(Cc1cccc3c1n(C)c(=O)n3C1CCC(=O)NC1=O)C2", "note": "(some centres unmarked) [I-45]", "IC50": "100 to 500"}
{"tested_on": "RS411 cells", "test": "Cell Viability CTG Assay (CellTiter Glo) in RS411 cells", "assay_type": "cell-based", "details": "Homo sapiens, RS4-11, 72 h, duration 3 days", "protocol": "as §1, §2, §3, §4", "units": {"IC50": "nM"}}
{"smiles": "CC(C)[C@@H](CS(=O)(=O)C(C)C)N1C(=O)[C@@](C)(CC(=O)Nc2ccc(C(=O)NCCCC#Cc3cccc4c3CN(C3CCC(=O)NC3=O)C4=O)cc2)C[C@H](c2cccc(Cl)c2)[C@H]1c1ccc(Cl)cc1", "note": "(some centres unmarked) [I-27]", "IC50": "100 to 500"}
{"smiles": "COc1cc(C(=O)NCCCCCc2cccc3c2n(C)c(=O)n3C2CCC(=O)NC2=O)ccc1NC(=O)[C@@H]1N[C@@H](CC(C)(C)C)[C@](C#N)(c2ccc(Cl)cc2F)[C@H]1c1cccc(Cl)c1F", "note": "(some centres unmarked) [I-28]", "IC50": "< 50"}
{"tested_on": "RS411 cells", "test": "Cell Viability CTG Assay (CellTiter Glo) in RS411 cells", "assay_type": "cell-based", "details": "Homo sapiens, RS4-11, 96 h, duration 4 days", "protocol": "as §1, §2, §3, §4", "units": {"IC50": "nM"}}
{"smiles": "CCOc1cc(C(C)(C)C)ccc1C1=N[C@@H](c2ccc(Cl)cc2)[C@@H](c2ccc(Cl)cc2)N1C(=O)N1CCN(CC#Cc2cccc3c2CN(C2CCC(=O)NC2=O)C3=O)CC1", "note": "(stereo partly drawn) [I-4, 3-[4-[3-[4-[(4S,5R)-2-(4-tert-butyl-2-ethoxy-phenyl)-4,5-bis(4-chlorophenyl)-4,5-dihydroimidazole-1-carbonyl]piperazin-1-yl]prop-1-ynyl]-1-oxo-isoindolin-2-yl]piperidine-2,6-dione]", "IC50": "50 to 100"}
{"smiles": "CC(C)[C@@H](CS(=O)(=O)C(C)C)N1C(=O)[C@@](C)(CC(=O)Nc2ccc(C(=O)NCCCOCCCN)cc2)C[C@H](c2cccc(Cl)c2)[C@H]1c1ccc(Cl)cc1", "note": "[I-5, N-[3-(3-aminopropoxy)propyl]-4-[[2-[(3R,5R,6S)-5-(3-chlorophenyl)-6-(4-chlorophenyl)-1-[(1S)-1-(isopropylsulfonylmethyl)-2-methyl-propyl]-3-methyl-2-oxo-3-piperidyl]acetyl]amino]benzamide]", "IC50": "> 1000"}
{"smiles": "CC(C)[C@@H](CS(=O)(=O)C(C)C)N1C(=O)[C@@](C)(CC(=O)Nc2ccc(C(=O)NCCOCCOCCOCCNc3cccc4c3C(=O)N(C3CCC(=O)NC3=O)C4=O)cc2)C[C@H](c2cccc(Cl)c2)[C@H]1c1ccc(Cl)cc1", "note": "(stereo partly drawn) [I-6, 4-[[2-[(3R,5R,6S)-5-(3-chlorophenyl)-6-(4-chlorophenyl)-1-[(1S)-1-(isopropylsulfonylmethyl)-2-methyl-propyl]-3-methyl-2-oxo-3-piperidyl]acetyl]amino]-N-[2-[2-[2-[2-[[2-(2,6-dioxo-3-piperidyl)-1,3-dioxo-isoindolin-4-yl]amino]ethoxy]ethoxy]ethoxy]ethyl]benzamide]", "IC50": "100 to 500"}
{"smiles": "COc1cc(C(=O)NCCCOCCCN)ccc1NC(=O)[C@@H]1N[C@@H](CC(C)(C)C)[C@](C#N)(c2ccc(Cl)cc2F)[C@H]1c1cccc(Cl)c1F", "note": "[I-7]", "IC50": "> 1000"}
{"smiles": "CC(C)[C@@H](CS(=O)(=O)C(C)C)N1C(=O)[C@@](C)(CC(=O)Nc2ccc(C(=O)NCCCCCCCNC(=O)c3ccc(NC(=O)C[C@@]4(C)C[C@H](c5cccc(Cl)c5)[C@@H](c5ccc(Cl)cc5)N([C@H](CS(=O)(=O)C(C)C)C(C)C)C4=O)cc3)cc2)C[C@H](c2cccc(Cl)c2)[C@H]1c1ccc(Cl)cc1", "note": "[I-8, 4-[2-[(3R,5R,6S)-5-(3-chlorophenyl)-6-(4-chlorophenyl)-3-methyl-1-[(2S)-3-methyl-1-(propane-2-sulfonyl)butan-2-yl]-2-oxopiperidin-3-yl]acetamido]-N-[7-[(4-[2-[(3R,5R,6S)-5-(3-chlorophenyl)-6-(4-chlorophenyl)-3-methyl-1-[(2S)-3-methyl-1-(propane-2-sulfonyl)butan-2-yl]-2-oxopiperidin-3-yl]acetamido]phenyl)formamido]heptyl]benzamide]", "IC50": "> 1000"}
{"smiles": "Cn1c(=O)n(C2CCC(=O)NC2=O)c2ccc(CCCCCNC(=O)c3ccc(NC(=O)[C@@H]4NC5(CCCCC5)[C@@]5(C(=O)Nc6cc(Cl)ccc65)[C@H]4c4cccc(Cl)c4F)cc3)cc21", "note": "(some centres unmarked) [I-9]", "IC50": "< 50"}
{"smiles": "Cc1ncsc1-c1ccc(CNC(=O)[C@@H]2C[C@@H](O)CN2C(=O)[C@@H](NC(=O)CCCCCCCNC(=O)C[C@@]2(C)C[C@H](c3cccc(Cl)c3)[C@@H](c3ccc(Cl)cc3)N([C@H](CS(=O)(=O)C(C)C)C(C)C)C2=O)C(C)(C)C)cc1", "note": "[I-10]", "IC50": "100 to 500"}
{"smiles": "Cc1ncsc1-c1ccc(CNC(=O)[C@@H]2C[C@@H](O)CN2C(=O)[C@@H](NC(=O)CCCNC(=O)C[C@@]2(C)C[C@H](c3cccc(Cl)c3)[C@@H](c3ccc(Cl)cc3)N([C@H](CS(=O)(=O)C(C)C)C(C)C)C2=O)C(C)(C)C)cc1", "note": "[I-11]", "IC50": "> 1000"}
{"smiles": "Cc1ncsc1-c1ccc(CNC(=O)[C@@H]2C[C@@H](O)CN2C(=O)[C@@H](NC(=O)CCCCCCCNC(=O)c2ccc(NC(=O)[C@@H]3NC4(CCCCC4)[C@@]4(C(=O)Nc5cc(Cl)ccc54)[C@H]3c3cccc(Cl)c3F)cc2)C(C)(C)C)cc1", "note": "[I-12]", "IC50": "50 to 100"}
{"smiles": "Cc1ncsc1-c1ccc(CNC(=O)[C@@H]2C[C@@H](O)CN2C(=O)[C@@H](NC(=O)CCCNC(=O)c2ccc(NC(=O)[C@@H]3NC4(CCCCC4)[C@@]4(C(=O)Nc5cc(Cl)ccc54)[C@H]3c3cccc(Cl)c3F)cc2)C(C)(C)C)cc1", "note": "[I-13]", "IC50": "500 to 1000"}
{"smiles": "CC(C)[C@@H](CS(=O)(=O)C(C)C)N1C(=O)[C@@](C)(CC(=O)Nc2ccc(C(=O)NCCCCCc3ccc4c(c3)n(C)c(=O)n4C3CCC(=O)NC3=O)cc2)C[C@H](c2cccc(Cl)c2)[C@H]1c1ccc(Cl)cc1", "note": "(some centres unmarked) [I-14]", "IC50": "< 50"}
{"smiles": "COc1cc(C(=O)NCCCCCc2ccc3c(c2)n(C)c(=O)n3C2CCC(=O)NC2=O)ccc1NC(=O)[C@@H]1N[C@@H](CC(C)(C)C)[C@](C#N)(c2ccc(Cl)cc2F)[C@H]1c1cccc(Cl)c1F", "note": "(some centres unmarked) [I-16]", "IC50": "< 50"}
{"smiles": "COc1cc(C(=O)NCCCC#Cc2ccc3c(c2)n(C)c(=O)n3C2CCC(=O)NC2=O)ccc1NC(=O)[C@@H]1N[C@@H](CC(C)(C)C)[C@](C#N)(c2ccc(Cl)cc2F)[C@H]1c1cccc(Cl)c1F", "note": "(some centres unmarked) [I-17]", "IC50": "< 50"}
{"smiles": "COc1cc(C(=O)NCCCCCCCC(=O)N[C@H](C(=O)N2C[C@H](O)C[C@H]2C(=O)NCc2ccc(-c3scnc3C)cc2)C(C)(C)C)ccc1NC(=O)[C@@H]1N[C@@H](CC(C)(C)C)[C@](C#N)(c2ccc(Cl)cc2F)[C@H]1c1cccc(Cl)c1F", "note": "[I-19]", "IC50": "< 50"}
{"smiles": "COc1cc(C(=O)NCCCC(=O)N[C@H](C(=O)N2C[C@H](O)C[C@H]2C(=O)NCc2ccc(-c3scnc3C)cc2)C(C)(C)C)ccc1NC(=O)[C@@H]1N[C@@H](CC(C)(C)C)[C@](C#N)(c2ccc(Cl)cc2F)[C@H]1c1cccc(Cl)c1F", "note": "[I-20]", "IC50": "100 to 500"}
{"smiles": "CC(C)[C@@H](CS(=O)(=O)C(C)C)N1C(=O)[C@@](C)(CC(=O)NCCCCCCCCc2ccc3c(c2)n(C)c(=O)n3C2CCC(=O)NC2=O)C[C@H](c2cccc(Cl)c2)[C@H]1c1ccc(Cl)cc1", "note": "(some centres unmarked) [I-21]", "IC50": "50 to 100"}
{"smiles": "CC(C)[C@@H](CS(=O)(=O)C(C)C)N1C(=O)[C@@](C)(CC(=O)NCCCCCCCCCCCNC(=O)C[C@@]2(C)C[C@H](c3cccc(Cl)c3)[C@@H](c3ccc(Cl)cc3)N([C@H](CS(=O)(=O)C(C)C)C(C)C)C2=O)C[C@H](c2cccc(Cl)c2)[C@H]1c1ccc(Cl)cc1", "note": "[I-23]", "IC50": "> 1000"}
{"smiles": "CC(C)[C@@H](CS(=O)(=O)C(C)C)N1C(=O)[C@@](C)(CC(=O)NCCCCCCC#Cc2cccc3c2CN(C2CCC(=O)NC2=O)C3=O)C[C@H](c2cccc(Cl)c2)[C@H]1c1ccc(Cl)cc1", "note": "(some centres unmarked) [I-26]", "IC50": "50 to 100"}
{"smiles": "O=C1CCC(N2Cc3c(C#CCCCNC(=O)c4ccc(NC(=O)[C@@H]5NC6(CCCCC6)[C@@]6(C(=O)Nc7cc(Cl)ccc76)[C@H]5c5cccc(Cl)c5F)cc4)cccc3C2=O)C(=O)N1", "note": "(some centres unmarked) [I-29]", "IC50": "< 50"}
{"smiles": "COc1cc(C(=O)NCCCC#Cc2cccc3c2n(C)c(=O)n3C2CCC(=O)NC2=O)ccc1NC(=O)[C@@H]1N[C@@H](CC(C)(C)C)[C@](C#N)(c2ccc(Cl)cc2F)[C@H]1c1cccc(Cl)c1F", "note": "(some centres unmarked) [I-30]", "IC50": "< 50"}
{"smiles": "COc1cc(C(=O)NCCCC#Cc2cccc3c2CN(C2CCC(=O)NC2=O)C3=O)ccc1NC(=O)[C@@H]1N[C@@H](CC(C)(C)C)[C@](C#N)(c2ccc(Cl)cc2F)[C@H]1c1cccc(Cl)c1F", "note": "(some centres unmarked) [I-31]", "IC50": "< 50"}
{"smiles": "COc1cc(C(=O)NCCCCCCCCNC(=O)c2ccc(NC(=O)[C@@H]3N[C@@H](CC(C)(C)C)[C@](C#N)(c4ccc(Cl)cc4F)[C@H]3c3cccc(Cl)c3F)c(OC)c2)ccc1NC(=O)[C@@H]1N[C@@H](CC(C)(C)C)[C@](C#N)(c2ccc(Cl)cc2F)[C@H]1c1cccc(Cl)c1F", "note": "[I-32]", "IC50": "100 to 500"}
{"smiles": "COc1cc(C(=O)NCCOCCOCCNC(=O)c2ccc(NC(=O)[C@@H]3N[C@@H](CC(C)(C)C)[C@](C#N)(c4ccc(Cl)cc4F)[C@H]3c3cccc(Cl)c3F)c(OC)c2)ccc1NC(=O)[C@@H]1N[C@@H](CC(C)(C)C)[C@](C#N)(c2ccc(Cl)cc2F)[C@H]1c1cccc(Cl)c1F", "note": "[I-33]", "IC50": "> 1000"}
